Test results: PMC10470178, “Long-acting lenacapavir protects macaques against intravenous challenge with simian-tropic HIV” (eBioMedicine, 2023)
“And” between values parts separate entries of the source, which are not always exact repeats. Equal entries are not always repeated.

Tests used:
stHIV-A19 = test: Multi-round replication assay of stHIV-A19 in pigtail macaque PBMCs (PERT readout); assay type: cell-based, simian-tropic HIV-1; details: for mean EC95 against stHIV-A19 in pigtail macaque PBMC: PTM PBMCs, three donors, RT in supernatant at 7 days, calculated from EC50 with Hill coefficient 3.51
Procedure: Infectious stocks of stHIV-A19,[23] HIV-1 NL4-3, and SIVmac239 were produced in HEK-293T (RRID: CVCL_1926) cells transfected with full-length viral genome plasmids using the TransIT HEK-293 transfection reagent (Mirus Bio) according to the manufacturer’s instructions. Virus stock infectious titres were determined on TZM-bl reporter cells (RRID: CVCL_B478) as previously described.[26] For experiments using SupT1-CCR5 target cells (RRID: CVCL_X633),[27] cultures were maintained in RPMI 1640 medium supplemented with 10% foetal bovine serum (FBS), 2 mM glutamine, 100 U/ml penicillin, and 100 μg/ml streptomycin. SupT1-CCR5 cells were inoculated with stHIV-A19, HIV-1 NL4-3, or SIVmac239 at a multiplicity of infection (MOI) = 0.0125 and cultured at 37 °C for 4 h. Cells were then washed three times to remove input virus, counted, and cultured in triplicate in growth media containing serial threefold dilutions of LEN or no LEN (control). The concentration of DMSO (LEN vehicle) was maintained at 0.5% for all cultures. Culture supernatants were collected 7 days post-inoculation, clarified by centrifugation, and stored at −80 °C for later quantification of vRNA by quantitative reverse transcription polymerase chain reaction (qRT-PCR). Primary human peripheral blood mononuclear cells (PBMCs) from anonymous HIV-negative donors were isolated from leukopaks obtained from the New York Blood Center for experiments using primary human and PTM PBMC. […] The stHIV-A19 stock was quantified with a SYBR Green-based qPCR-based product-enhanced RT (PERT) assay using a purified reverse transcriptase (RT) protein standard, as previously described.[28] […] After 7 days, the virus in culture supernatants was quantified using the PERT assay. […] The EC95 for LEN against stHIV-A19 was then calculated from its corresponding EC50 values using the ECanything equation: ECF = EC50 × (F/100-F)^1/n, where F equals the percent response (e.g., 95) and n equals the Hill coefficient for LEN (n = 3.51) as previously described.[16]

[1] = Equilibrium dialysis shift assay in PTM plasma; assay type: in vitro ADME, pigtail macaque; details: competitive equilibrium dialysis, LEN 2 μM in 10% PTM plasma, 4 donors, 24 h, 37 °C
Procedure: The protein shift ratio for LEN in PTM plasma was determined by competitive equilibrium dialysis. Lenacapavir (2 μM) was spiked into 10% PTM plasma from each of 4 individual donors (3 males and 1 female) and then placed in triplicate into one side of assembled dialysis cells (Harvard Apparatus), followed by the addition of RPMI cell culture medium containing 10% foetal bovine serum to the opposite side of each cell. After a 24-h equilibration period at 37 °C, plasma and cell culture medium samples were collected and individually mixed 1:1 with the reciprocal blank matrix. Samples were then deproteinated following the addition of acetonitrile (1:4 ratio, respectively) containing 50 ng/ml warfarin and 50 ng/ml ritonavir as an internal standard and analysed using a liquid chromatography with tandem mass spectrometry (LC-MS/MS) method utilizing a SciEx API 4000 triple quadrupole mass spectrometer equipped with a Shimadzu Nexera UPLC system. The mean plasma protein binding-adjusted shift for LEN in 100% PTM plasma obtained from 4 independent experiments, each using a single PTM plasma donor performed in triplicate, was then calculated using a non-linear equation.

SHIVs = system: SHIVs; set-up: method as in PMID 34875675; details: SHIVs contain SIV CA derived from SIVmac239; cited from earlier work

SMILES: CC(C)(C#Cc1ccc(-c2ccc(Cl)c3c(NS(C)(=O)=O)nn(CC(F)(F)F)c23)c([C@H](Cc2cc(F)cc(F)c2)NC(=O)Cn2nc(C(F)(F)F)c3c2C(F)(F)[C@@H]2C[C@H]32)n1)S(C)(=O)=O [LEN, Lenacapavir]
- plasma protein binding-adjusted EC95 (PA-EC95) against stHIV-A19 in PTMs (stHIV-A19; EC95 in PTM PBMC adjusted by 9.7-fold plasma shift): 1.46 (±0.07 SD) nM and 1.46 nM
- mean EC95 against stHIV-A19 in pigtail macaque PBMC (stHIV-A19): 149 ± 7 pM
- mean EC95 against stHIV-A19 in pigtail macaque PBMC (stHIV-A19; listed as Lenacapavir): 149 (±7 SD) pM
- projected reduction of antiviral potency in 100% PTM plasma vs complete cell culture media (protein shift) [1]: 9.7 fold
- reduced sensitivity of SHIVs compared with HIV-1 (SHIVs): 5–8 fold
